By EC50 is commonly meant the concentration needed to bring the measured effect to its halfway point.

Some results are limits rather than exact numbers.

This passage reports EC50 results from patent publication US11560370B1, “5-membered heteroaryl carboxamide compounds for treatment of HBV” (Assembly Biosciences, Inc., priority 2018, dated 2023).

One experiment concerns HBV. Briefly: Viral production from HepAD38 cells, viral load by qPCR of HBV core sequence. In kind it is cell-based. The conditions noted are these: 5 days, supernatant HBV DNA by qPCR, read-out: Viral Load EC50 Activity range. Summed up:
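HepAD38 cells in tetracycline-free medium with 2% FBS, 50,000 cells/well, treated 5 days at 37° C. with compound from 10 μM top concentration (1% DMSO final). Supernatant HBV DNA measured by TaqMan qPCR of core sequence against standards, versus DMSO wells; viability by CellTiter-Glo; EC50/CC50 by four-parameter fit.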
For orientation: Quantitative PCR measures a nucleic acid by following its amplification.
With `Cn1nc(C2CC3CC(C#N)CC3C2)c(C(=O)Nc2ccc(F)c(Cl)c2)c1N` (centres unmarked) [AIA-027], the concentration for a half-maximal effect (EC50) is less than 100 nM.

On to `CSC1CC2CC(c3nn(C)c(N)c3C(=O)Nc3ccc(F)c(Cl)c3)CC2C1` (centres unmarked) [AIA-028], for which the EC50 was less than 100 nM.

Consider `Cn1nc(C2CC3CC(S(C)(=O)=O)CC3C2)c(C(=O)Nc2ccc(F)c(Cl)c2)c1N` (centres unmarked) [AIA-030], for which the EC50 was less than 100 nM.

Regarding `Cn1nc([C@@H]2CC3C/C(=N/O)C[C@@H]3C2)c(C(=O)Nc2ccc(F)c(Cl)c2)c1N` (some centres unmarked) [AIA-032-A], the EC50 was less than 100 nM.

With `Cn1nc([C@H]2CC3C/C(=N/O)C[C@@H]3C2)c(C(=O)Nc2ccc(F)c(Cl)c2)c1N` (some centres unmarked) [AIA-032-B], the half-maximal effective concentration (EC50) is less than 100 nM.

As to `Cn1nc(C2CC3CNC(=O)CC3C2)c(C(=O)Nc2ccc(F)c(Cl)c2)c1N` (centres unmarked) [AIA-033], the EC50 is less than 100 nM.

As to `Cn1nc(C2CC3CC(NS(C)(=O)=O)CC3C2)c(C(=O)Nc2ccc(F)c(Cl)c2)c1N` (centres unmarked) [AIA-042], the EC50 was less than 100 nM.

Consider `CN(C1CC2CC(c3nn(C)c(N)c3C(=O)Nc3ccc(F)c(Cl)c3)CC2C1)S(C)(=O)=O` (centres unmarked) [AIA-043], for which the EC50 is less than 100 nM.

On to `Cn1nc(C2CC3CC(N4CCCS4(=O)=O)CC3C2)c(C(=O)Nc2ccc(F)c(Cl)c2)c1N` (centres unmarked) [AIA-044], for which the EC50 is less than 100 nM.

Turning to `Cn1nc(C2CC3CC(N4CCOC4=O)CC3C2)c(C(=O)Nc2ccc(F)c(Cl)c2)c1N` (centres unmarked) [AIA-046], the EC50 is less than 100 nM.

In the case of `Cn1nc(C2CC3CC(N4CCNC4=O)CC3C2)c(C(=O)Nc2ccc(F)c(Cl)c2)c1N` (centres unmarked) [AIA-047], the EC50 is less than 100 nM.

`Cn1cc(C2CC3CC(c4nn(C)c(N)c4C(=O)Nc4ccc(F)c(Cl)c4)CC3C2)cn1` (centres unmarked) [AIA-049]: the EC50 is less than 100 nM.

Turning to `Cn1nc(C2CC3CSCC3C2)c(C(=O)Nc2ccc(F)c(Cl)c2)c1N` (centres unmarked) [AIA-055], the concentration for a half-maximal effect (EC50) was less than 100 nM.

With `Cn1nc(C2CC3CC(N)CC3C2)c(C(=O)Nc2ccc(F)c(Cl)c2)c1N` (centres unmarked) [AIA-073], the 50% effective concentration (EC50) fell in the range of 100 to 500 nM.

Take `Cn1nc(C2CC3CC([S+](C)[O-])CC3C2)c(C(=O)Nc2ccc(F)c(Cl)c2)c1N` (centres unmarked) [AIA-074]: the EC50 was less than 100 nM.

Turning to `Cn1nc(C2CC3CC(NS(=O)(=O)C(F)(F)F)CC3C2)c(C(=O)Nc2ccc(F)c(Cl)c2)c1N` (centres unmarked) [AIA-086], the 50% effective concentration (EC50) is less than 100 nM.

For `CNC1CC2CC(c3nn(C)c(N)c3C(=O)Nc3ccc(F)c(Cl)c3)CC2C1` (centres unmarked) [AIA-102], the EC50 lay in the range of 100 to 500 nM.

Consider `Cn1nc([C@@H]2CC3CC(O)(CS(C)(=O)=O)C[C@@H]3C2)c(C(=O)Nc2ccc(F)c(Cl)c2)c1N` (some centres unmarked) [AIA-227-1, 5-Amino-N-(3-chloro-4-fluorophenyl)-3-((2r,5r)-5-hydroxy-5-(methylsulfonylmethyl)octahydropentalen-2-yl)-1-methyl-1H-pyrazole-4-carboxamide], for which the EC50 is less than 100 nM.

With `Cn1nc(C2CC3CCCC3C2)c(C(=O)Nc2ccc(F)c(Cl)c2)c1N` (centres unmarked) [AIA-232], the EC50 was less than 100 nM.

Staying with this experiment, now noted: Hepatitis B virus, HePAD38, 120 h, 5 days, supernatant HBV DNA by qPCR, read-out: Viral Load EC50 Activity range.
Turning to `Cn1nc(C2CC3CC(CC(N)=O)CC3C2)c(C(=O)Nc2ccc(F)c(Cl)c2)c1N` (centres unmarked) [AIA-021, 5-Amino-3-(5-(2-amino-2-oxoethyl)octahydropentalen-2-yl)-N-(3-chloro-4-fluorophenyl)-1-methyl-1H-pyrazole-4-carboxamide], the EC50 was less than 100 nM.

With `COC(=O)N1CC2CC(c3nn(C)c(N)c3C(=O)Nc3ccc(F)c(Cl)c3)CC2C1` (centres unmarked) [AIA-022], the EC50 is less than 100 nM.

With `CNC(=O)N1CC2CC(c3nn(C)c(N)c3C(=O)Nc3ccc(F)c(Cl)c3)CC2C1` (centres unmarked) [AIA-023, 5-(5-Amino-4-(3-chloro-4-fluorophenylcarbamoyl)-1-methyl-1H-pyrazol-3-yl)-N-methylhexahydrocyclopenta[c]pyrrole-2(1H)-carboxamide], the 50% effective concentration (EC50) was less than 100 nM.

As for `Cn1nc(C2CC3CN(S(C)(=O)=O)CC3C2)c(C(=O)Nc2ccc(F)c(Cl)c2)c1N` (centres unmarked) [AIA-024, 5-Amino-N-(3-chloro-4-fluorophenyl)-1-methyl-3-(2-(methylsulfonyl)octa hydrocyclopenta[c]pyrrol-5-yl)-1H-pyrazole-4-carboxamide], the EC50 was less than 100 nM.

In the case of `Cn1nc(C2CC3CN(C(=O)N4CCCC4)CC3C2)c(C(=O)Nc2ccc(F)c(Cl)c2)c1N` (centres unmarked) [AIA-025, 5-Amino-N-(3-chloro-4-fluorophenyl)-1-methyl-3-(2-(pyrrolidine-1-carbonyl)octahydrocyclopenta[c]pyrrol-5-yl)-1H-pyrazole-4-carboxamide], the EC50 was less than 100 nM.

With `CCSC1CC2CC(c3nn(C)c(N)c3C(=O)Nc3ccc(F)c(Cl)c3)CC2C1` (centres unmarked) [AIA-029, 5-Amino-N-(3-chloro-4-fluorophenyl)-3-(5-(ethylthio)octahydropentalen-2-yl)-1-methyl-1H-pyrazole-4-carboxamide], the EC50 is less than 100 nM.

Consider `CCS(=O)(=O)C1CC2CC(c3nn(C)c(N)c3C(=O)Nc3ccc(F)c(Cl)c3)CC2C1` (centres unmarked) [AIA-031, 5-Amino-N-(3-chloro-4-fluorophenyl)-3-(5-(ethylsulfonyl)octahydropentalen-2-yl)-1-methyl-1H-pyrazole-4-carboxamide], for which the concentration giving a half-maximal response (EC50) is less than 100 nM.

Take `Cn1nc(C2CC3CC(N4CCCC4)CC3C2)c(C(=O)Nc2ccc(F)c(Cl)c2)c1N` (stereo not drawn) [AIA-040, 5-Amino-N-(3-chloro-4-fluorophenyl)-1-methyl-3-(5-(pyrrolidin-l-yl)octahydropentalen-2-yl)-1H-pyrazole-4-carboxamide]: the concentration for a half-maximal effect (EC50) is less than 100 nM.

As to `Cn1nc(C2CC3CC(N4CCOCC4)CC3C2)c(C(=O)Nc2ccc(F)c(Cl)c2)c1N` (centres unmarked) [AIA-041, 5-Amino-N-(3-chloro-4-fluorophenyl)-1-methyl-3-(5-morpholinooctahydropentalen-2-yl)-1H-pyrazole-4-carboxamide], the 50% effective concentration (EC50) was less than 100 nM.

On to `Cn1nc(C2CC3CC(n4cccn4)CC3C2)c(C(=O)Nc2ccc(F)c(Cl)c2)c1N` (centres unmarked) [AIA-048, 3-(5-(1H-Pyrazol-1-yl)octahydropentalen-2-yl)-5-amino-N-(3-chloro-4-fluorophenyl)-1-methyl-1H-pyrazole-4-carboxamide], for which the EC50 is less than 100 nM.

For `Cn1cc(-c2ccc([C@H]3CC[C@@H](c4nn(C)c(N)c4C(=O)Nc4ccc(F)c(Cl)c4)C3)cc2)cn1` [AIA-050-A, 5-Amino-N-(3-chloro-4-fluorophenyl)-1-methyl-3-((1R,3S)-3-(4-(1-methyl-1H-pyrazol-4-yl)phenyl)cyclopentyl)-1H-pyrazole-4-carboxamide], the half-maximal effective concentration (EC50) is less than 100 nM.

In the case of `Cn1cc(-c2ccc([C@H]3CC[C@H](c4nn(C)c(N)c4C(=O)Nc4ccc(F)c(Cl)c4)C3)cc2)cn1` [AIA-050-B, 5-amino-N-(3-chloro-4-fluorophenyl)-1-methyl-3-((1S,3S)-3-(4-(1-methyl-1H-pyrazol-4-yl)phenyl)cyclopentyl)-1H-pyrazole-4-carboxamide], the EC50 was less than 100 nM.

Take `CN1CC2CC(c3nn(C)c(N)c3C(=O)Nc3ccc(F)c(Cl)c3)CC2C1` (centres unmarked) [AIA-052, 5-Amino-N-(3-chloro-4-fluorophenyl)-1-methyl-3-(2-methyloctahydrocyclopenta [c]pyrrol-5-yl)-1H-pyrazole-4-carboxamide]: the EC50 fell in the range of 500 to 10000 nM.

Turning to `CC(C)N1CC2CC(c3nn(C)c(N)c3C(=O)Nc3ccc(F)c(Cl)c3)CC2C1` (centres unmarked) [AIA-053, 5-Amino-N-(3-chloro-4-fluorophenyl)-3-(2-isopropyloctahydrocyclopenta[c]pyrrol-5-yl)-1-methyl-1H-pyrazole-4-carboxamide], the concentration giving a half-maximal response (EC50) lay in the range of 500 to 10000 nM.

`CC(N1CC2CC(c3nn(C)c(N)c3C(=O)Nc3ccc(F)c(Cl)c3)CC2C1)C(F)(F)F` (centres unmarked) [AIA-054, 5-Amino-N-(3-chloro-4-fluorophenyl)-1-methyl-3-(2-(1,1,1-trifluoropropan-2-yl)octahydrocyclopenta[c]pyrrol-5-yl)-1H-pyrazole-4-carboxamide]: the EC50 is less than 100 nM.

Turning to `Cn1nc(C2CC3CC(OC(C)(C)C)CC3C2)c(C(=O)Nc2ccc(F)c(Cl)c2)c1N` (centres unmarked) [AIA-058, 5-Amino-3-(5-(tert-butoxy)octahydropentalen-2-yl)-N-(3-chloro-4-fluorophenyl)-1-methyl-1H-pyrazole-4-carboxamide], the concentration giving a half-maximal response (EC50) was less than 100 nM.

`CC[S+]([O-])C1CC2CC(c3nn(C)c(N)c3C(=O)Nc3ccc(F)c(Cl)c3)CC2C1` (centres unmarked) [AIA-075, 5-Amino-N-(3-chloro-4-fluorophenyl)-3-(5-(ethylsulfinyl)octahydropentalen-2-yl)-1-methyl-1H-pyrazole-4-carboxamide]: the half-maximal effective concentration (EC50) is less than 100 nM.

Regarding `Cn1nc(C2CC3CC(O)(C4CC4)CC3C2)c(C(=O)Nc2ccc(F)c(Cl)c2)c1N` (centres unmarked) [AIA-077, 5-Amino-N-(3-chloro-4-fluorophenyl)-3-(5-cyclopropyl-5-hydroxyoctahydropentalen-2-yl)-1-methyl-1H-pyrazole-4-carboxamide], the EC50 was less than 100 nM.

As to `CC(C)S(=O)(=O)N1CC2CC(c3nn(C)c(N)c3C(=O)Nc3ccc(F)c(Cl)c3)CC2C1` (centres unmarked) [AIA-085, 5-Amino-N-(3-chloro-4-fluorophenyl)-3-(2-(isopropylsulfonyl)octahydrocyclopentyl[c]pyrrol-5-yl)-1-methyl-1H-pyrazole-4-carboxamide], the 50% effective concentration (EC50) is less than 100 nM.

For `Cn1nc(C2CC3CC(OCC(F)(F)F)CC3C2)c(C(=O)Nc2ccc(F)c(Cl)c2)c1N` (centres unmarked) [AIA-101, 5-Amino-N-(3-chloro-4-fluorophenyl)-1-methyl-3-(5-(2,2,2-trifluoroethoxy)octahydropentalen-2-yl)-1H-pyrazole-4-carboxamide], the EC50 was less than 100 nM.

As to `Cn1nc(C2CC3CC(NCCO)CC3C2)c(C(=O)Nc2ccc(F)c(Cl)c2)c1N` (centres unmarked) [AIA-103, 5-Amino-N-(3-chloro-4-fluorophenyl)-3-(5-((2-hydroxyethyl)amino)octahydropentalen-2-yl)-1-methyl-1H-pyrazole-4-carboxamide], the EC50 lay in the range of 100 to 500 nM.

In the case of `Cn1nc([C@H]2CC3C[C@](O)(CS(C)(=O)=O)CC3C2)c(C(=O)Nc2ccc(F)c(Cl)c2)c1N` (some centres unmarked) [AIA-227-2, 5-Amino-N-(3-chloro-4-fluorophenyl)-3-((2s,5s)-5-hydroxy-5-(methylsulfonylmethyl)octahydropentalen-2-yl)-1-methyl-1H-pyrazole-4-carboxamide], the concentration giving a half-maximal response (EC50) was less than 100 nM.
